According to US5393768A, “Leukotriene antagonists” (Eli Lilly and Company, priority 1993, dated 1995):

Experiments:
[1] = tested on: LTD4 evoked contractions of guinea pig ileum; assay: Percent inhibition of LTD4 evoked ileal contractions (single submaximal LTD4 response, 5 minute drug exposure); assay type: cell-based, guinea pig (male, Hartley); conditions: Cavia porcellus
Experimental: Male, Hartley guinea pigs weighing 200-450 grams were killed by decapitation. A section of terminal ileum was removed, the lumen cleaned, and the tissue divided into 2.5 cm. segments. The ilea were mounted in 10 ml. tissue baths containing Krebs-bicarbonate solution of the following composition in mmoles/-liter: KCl, 4.6; CaCl2 ·2H2 O, 1.2; KH2 PO4, 1.2; MgSO4 ·7H2 O, 1.2; NaCl, 118.2; NaHCO3, 24.8; and dextrose, 10.0. The bath fluid was maintained at 37° C. and aerated with 95 percent oxygen and 5 percent CO2. In addition, the buffer contained 1×10^-6 M atropine to reduce ileal spontaneous activity. Isometric measurements were made with a Grass FTO3C force-displacement transducer and recorded on a Grass polygraph as change in grams of force. A passive force of 0.5 g. was applied to the tissues. After an appropriate equilibration period, single submaximal control responses to pure LTD4 were obtained. Following a five minute exposure of the ileum to an experimental drug, the control concentration of LTD was added to the tissue bath. The response of the ileum to LTD4 in the presence of the drug was compared to the response in the absence of the drug.

[2] = biological target: T1, LTD4 evoked contractions of guinea pig ileum (Cavia porcellus, UniProt Q2NNR5); assay: LTD4 antagonism, cumulative concentration-response curves (Schild pA2); assay type: cell-based; conditions: 30 minute incubation, negative log of KB
T1 construct: A section of terminal ileum was removed, the lumen cleaned, and the tissue divided into 2.5 cm. segments; from tissue; host or cells: terminal ileum of male Hartley guinea pigs
T1 sequence (Q2NNR5 1-340): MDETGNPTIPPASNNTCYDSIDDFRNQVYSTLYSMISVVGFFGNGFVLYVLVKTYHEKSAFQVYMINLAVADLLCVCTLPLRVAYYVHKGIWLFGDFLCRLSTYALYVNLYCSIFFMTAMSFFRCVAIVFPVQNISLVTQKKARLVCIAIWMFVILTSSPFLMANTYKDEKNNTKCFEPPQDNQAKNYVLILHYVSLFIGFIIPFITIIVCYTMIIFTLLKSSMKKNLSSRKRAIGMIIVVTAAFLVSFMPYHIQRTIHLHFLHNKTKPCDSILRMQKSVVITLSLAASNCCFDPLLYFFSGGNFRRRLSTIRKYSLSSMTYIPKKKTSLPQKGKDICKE
Experimental: For some of the drugs in this series a more detailed analysis of LTD4 antagonism was made. In these experiments, cumulative concentration-response curves were obtained to LTD4 in guinea pig ileum and trachea. This was followed by a 30 minute incubation with various concentrations of the experimental drug. The concentration response curve to LTD4 was then repeated in the presence of the antagonist. Only one concentration of antagonist was used on a single tissue. KB values were calculated by the method of Furchgott [Ann. N.Y. Acad. Sci., 139, 553 (1967)] using the following equation. [formula]
Dose ratio refers to the concentration of agonist required to elicit 50 percent of the maximal response (ED50) in the presence of the antagonist divided by the ED50 in the absence of the antagonist. Calculations were performed with the aid of a computer and a digital plotter.

CCCc1c(COc2cccc(C(=O)O)c2)ccc(C(C)=O)c1O [Example 14, 3-(4-Acetyl-3-hydroxy-2-propylbenzyloxy)benzoic acid]
inhibition at 1 µM ([1]; Compound concentration 1 × 10^-6 M): 31%
inhibition at 3 µM ([1]; Compound concentration 3 × 10^-6 M): 67%
Kb [2]: 1780 nM
